Assay results published in patent US11344552B2, “Methods for treating metastatic pancreatic cancer using combination therapies comprising liposomal irinotecan and oxaliplatin” (Ipsen Biopharm Ltd., priority 2015, dated 2022).
Where two headings read alike, the source gives them in different places.

Assays:
[1] = biological target: T1, topoisomerase I (Homo sapiens, UniProt P11387); settings: metabolite formed by nonspecific carboxylesterases; cited from earlier work
T1 sequence (P11387 1-765): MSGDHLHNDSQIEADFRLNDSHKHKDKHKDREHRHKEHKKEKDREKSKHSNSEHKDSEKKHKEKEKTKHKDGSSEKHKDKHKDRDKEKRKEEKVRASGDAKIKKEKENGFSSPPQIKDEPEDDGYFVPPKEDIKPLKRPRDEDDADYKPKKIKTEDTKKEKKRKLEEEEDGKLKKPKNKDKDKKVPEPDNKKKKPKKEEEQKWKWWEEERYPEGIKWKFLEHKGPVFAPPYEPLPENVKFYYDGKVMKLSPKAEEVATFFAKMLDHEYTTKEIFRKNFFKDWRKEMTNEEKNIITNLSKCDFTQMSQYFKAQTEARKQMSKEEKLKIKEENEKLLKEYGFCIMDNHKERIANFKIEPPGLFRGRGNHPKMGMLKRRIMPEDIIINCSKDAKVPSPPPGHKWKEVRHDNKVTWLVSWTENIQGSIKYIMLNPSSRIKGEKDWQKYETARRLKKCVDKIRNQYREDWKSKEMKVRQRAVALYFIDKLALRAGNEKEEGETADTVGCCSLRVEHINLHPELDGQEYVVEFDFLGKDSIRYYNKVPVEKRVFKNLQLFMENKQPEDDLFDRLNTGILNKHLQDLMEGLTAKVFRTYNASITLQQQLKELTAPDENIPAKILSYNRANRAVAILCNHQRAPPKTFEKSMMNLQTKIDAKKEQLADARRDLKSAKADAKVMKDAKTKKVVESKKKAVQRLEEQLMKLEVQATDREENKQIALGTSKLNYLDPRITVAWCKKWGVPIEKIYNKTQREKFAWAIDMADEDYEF

[2] = tested on: pancreatic cell lines (AsPC-1, BxPC-3, Capan-2, CFPAC-1, and MiaPaCa-2); test: In vitro cell growth inhibition by SN-38 exposure duration in a panel of pancreatic cell lines; settings: SN-38 combined with 5-FU or oxaliplatin; prolonged vs short exposure
[3] = tested on: PDX 19015 pancreatic cancer xenograft; test: Patient-derived xenograft (PDX #19015) pancreatic cancer mouse efficacy model; type: in vivo; settings: FIG. 6D, relative to the control group
Description: Treatment doses are indicated in the figure beside each treatment, and were given 4 times.
Significance was determined by ordinary 2-way analysis of variance (ANOVA). The regimens were administered on days 0, 7, 14 and 21 of the study.
Female CB.17 SCID mice were obtained from Roswell Park Cancer Institute (Buffalo, N.Y.), initially at 6-8 weeks of age. Per treatment group, 8 animals were treated, unless otherwise indicated. Tumor pieces were derived from donor mice and engrafted subcutaneously.
5-FU was administered intraperitoneally. […] Tolerability: Mouse weights were measured once weekly to monitor treatment tolerability.

[4] = cited from earlier work
[5] = Delayed dosing of oxaliplatin: tolerability, hematologic and liver toxicities in naive CD-1 mice; settings: intravenous, pre-defined
Description: Tolerability studies were performed in naïve (non-tumor-bearing) mice. Three animals were treated per group.
Each drug was administered individually, or in combination. […] A single administration of each drug was given. Mouse body weights were measured daily for up to 2 weeks post-treatment.
Measurement of hematologic and liver toxicities: At the end of study, terminal bleeds were performed for each mouse via cardiac puncture. Hematologic function (blood cell count) was measured by Hemavet (Drew Scientific, Miami Lakes, Fla.), according to manufacturer's protocol. Liver function (enzyme levels) was measured by CatalystDx (Idexx Laboratories, Westbrook, Me.) according to the manufacturer's protocol.

[6] = Phase 3 study of the FOLFIRINOX combination; cited from earlier work

Q: With CCc1c2c(nc3ccc(O)cc13)-c1cc3c(c(=O)n1C2)COC(=O)[C@]3(O)CC [SN-38] as the compound, how does the “activity relative to irinotecan” value [1] read?
A: 100-1000 fold

Q: What about the cell growth inhibition [2] of the same compound?
A: prolonged exposure also led to increased cell growth inhibition

Q: Which overall survival [3] does the source give for CCc1c2c(nc3ccc(OC(=O)N4CCC(N5CCCCC5)CC4)cc13)-c1cc3c(c(=O)n1C2)COC(=O)[C@]3(O)CC [irinotecan, (S)-4,11-diethyl-3,4,12,14-tetrahydro-4-hydroxy-3,14-dioxo1H-pyrano[3′,4′: 6,7]-indolizino[1,2-b]quinolin-9-yl-[1,4′bipiperidine]-1′-carboxylate] here?
A: No benefit of added 5-FU or oxaliplatin

Q: What about the “incidence of grade 4 neutropenia” value ([4]; patients heterozygous for UGT1A1*28 (6/7 genotype), single-agent irinotecan 350 mg/m^2 once every-3-weeks) of the same compound?
A: 12.5%

Q: What about the “incidence of grade 4 neutropenia” value ([4]; patients homozygous for the UGT1A1*28 allele, single-agent irinotecan 350 mg/m^2 once every-3-weeks) of the same compound?
A: 50%

Q: What about the “incidence of grade 4 neutropenia” value ([4]; patients homozygous for the wild-type allele (UGT1A1 6/6 genotype)) of the same compound?
A: no grade 4 neutropenia was observed

Q: Which maximum tolerated dose [5] does the source give for O=C(O)C(=O)O.[NH-][C@@H]1CCCC[C@H]1[NH-].[Pt+2] [oxaliplatin] here?
A: 17 mg/kg

Q: For FOLFIRINOX, which “incidence of most common Grade 3-4 adverse events (neutropenia, fatigue, vomiting, diarrhea, thrombocytopenia, sensory neuropathy, anemia, elevated ALT, thromboembolism, febrile neutropenia)” value [6] is on record?
A: > 5%
